Target: T1, IKKα (Homo sapiens, UniProt O15111)
T1 construct: gene CHUK; recombinant IKKα (Invitrogen), described as a monomer
T1 sequence (O15111 1-745): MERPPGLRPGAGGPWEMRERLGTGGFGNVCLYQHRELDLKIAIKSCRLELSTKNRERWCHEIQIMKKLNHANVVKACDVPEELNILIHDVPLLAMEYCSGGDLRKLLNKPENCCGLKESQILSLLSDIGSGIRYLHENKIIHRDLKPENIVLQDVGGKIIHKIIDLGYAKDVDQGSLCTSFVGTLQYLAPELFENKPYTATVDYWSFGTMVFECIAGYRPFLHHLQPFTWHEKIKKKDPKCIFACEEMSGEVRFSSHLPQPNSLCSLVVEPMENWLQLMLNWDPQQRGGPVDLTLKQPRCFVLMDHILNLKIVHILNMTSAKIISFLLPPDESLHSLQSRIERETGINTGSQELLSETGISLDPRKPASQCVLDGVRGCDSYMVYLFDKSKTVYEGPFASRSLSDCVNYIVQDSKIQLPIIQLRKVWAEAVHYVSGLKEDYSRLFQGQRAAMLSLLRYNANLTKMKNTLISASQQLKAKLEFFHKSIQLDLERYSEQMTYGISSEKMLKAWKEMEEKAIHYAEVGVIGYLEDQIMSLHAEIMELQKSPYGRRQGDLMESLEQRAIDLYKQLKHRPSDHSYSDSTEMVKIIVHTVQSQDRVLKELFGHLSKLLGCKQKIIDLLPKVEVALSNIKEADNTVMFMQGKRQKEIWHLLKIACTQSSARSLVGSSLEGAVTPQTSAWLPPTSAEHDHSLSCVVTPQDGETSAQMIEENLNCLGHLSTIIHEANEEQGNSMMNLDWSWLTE
Assay: in vitro kinase assay with recombinant IKKα and IKKtide, UPLC-MS readout
Type: biochemical

- IC50: 500 ± 86 µM
SMILES: CC(=O)N[C@@H](Cc1ccccc1)C(=O)N[C@@H]1[C@@H](O)[C@H](O)[C@@H](CO)O[C@H]1O [NAPA, 2-(N-Acetyl)-L-phenylalanylamido-2-deoxy-β -D-glucose]

From publication PMC7915277, “Biochemical and Computational Studies of the Interaction between a Glucosamine Derivative, NAPA, and the IKKα Kinase” (International Journal of Molecular Sciences, 2021)
